# Entries after “also recorded” stand apart in the source; their conditions may differ. Where a SMILES comes first, the peptide text is derived from it. Bridges are numbered along the chain shown (N, C = ends).
# Tests used:
# [1] = Small unilamellar vesicle-binding assay; format: physicochemical
# Protocol: After the film rinsed with pentane was lyophilized at −40 °C overnight, the lipid was suspended with a buffer (10 mM HEPES, 50 mM KCl at pH 7.0). POPE (1-palmitoyl-2-oleoyl-phosphatidylethanolamine, 10 mg ml^−1) and POPG (1-palmitoyl-2-oleoylphosphatidyl-Dl-glycerol, 10 mg ml^−1) were mixed in a 3:1 ratio for POPE/POPG vesicle preparation. In total, 150 mM KCl was used instead of 50 mM KCl. The suspended lipid was then sonicated (in ice water) until the solution became transparent. RhTx was mixed with 10 mg ml^−1 (total concentration) small unilamellar vesicle (SUVs). The mixture was incubated for 40 min at room temperature before ultracentrifugation. Toxin–vesicle mixtures were centrifuged at 304,000g for 150 min. The residual toxins in the supernatant were evaluated by RP-HPLC using a linear gradient of acetonitrile containing 0.1% v/v trifluoroacetic acid.
# [2] = test system: voltage-gated Ca channels; assay: Selectivity recording on voltage-gated Ca channels; format: cell-based; details: 10 μM RhTx compared to toxin-free treatment
# Protocol: (§1) Supplementary Figure 3. […]
# (§2) mTRPV2 (c), mTRPV3 (d) and mTRPV4 (e). (f) Treatment with 10 μM RhTx (red traces)
# mTRPV2 = assay: Selectivity recording on mTRPV2; format: cell-based, mouse; details: RhTx at 10 μM
# Protocol: As described in details in a previous report, macroscopic currents (in whole-cell, inside-out or outside-out configuration) as well as single-channel currents were recorded using a HEKA EPC10 amplifier with the PatchMaster software (HEKA). Both pipette solution and bath solution contained 130 mM NaCl, 3 mM HEPES and 0.2 mM EDTA (pH 7.2). All recordings were performed at room temperature unless otherwise stated. A holding potential of 0 mV was used from which a testing pulse to +80 mV was applied. Statistical difference was determined using the Student’s t-test, and indicated by ** when reaching the significance level P<0.001.
# as §1, §2
# Trpv1−/− mice = assay: Colonic temperature in TRPV1 knockout mice; format: in vivo, mouse; details: Trpv1−/− mice n=3, intraperitoneal, 10 μmol kg^−1
# Protocol: In vivo effects of RhTx on WT mice or Trpv1^−/− mice were examined according to protocols described previously. For the paw-licking assay, pain was induced in mice by intraplantar injection of 0.1% formalin, capsaicin (1 μmol per paw) or RhTx (1 μmol per paw). Each of the testing materials was dissolved in 100 μl saline. Control mice received the same volume of saline. Injected mice were placed individually into open polyvinyl cages (20 × 40 × 15 cm). Time spent licking the injected paw was recorded by a digital video camera during the following 40 min. For recording colonic temperature from WT or Trpv1^−/− mice, mice equipped with a copper-constantan thermocouple were individually placed in open polyvinyl cages. A data logger was connected to the thermocouple. Mice were injected intraperitoneally with 100 μl saline containing capsaicin or RhTx. The dose of capsaicin or RhTx was 10 μmol kg^−1 for these experiments. Mice in the control group received the same volume of saline.
compound,measurement,setting,value
"CC[C@H](C)[C@H](NC(=O)[C@@H]1CSSC[C@@H]2NC(=O)[C@H]([C@@H](C)O)NC(=O)[C@H](C(C)C)NC(=O)CNC(=O)[C@H](CC(N)=O)NC(=O)[C@@H](NC(=O)[C@@H]3CCCN3C(=O)[C@H](CC(N)=O)NC(=O)[C@H](CC(N)=O)NC(=O)[C@@H](N)CC(C)C)CSSC[C@H](NC(=O)[C@H](CCCNC(=N)N)NC(=O)[C@H](Cc3ccc(O)cc3)NC(=O)CNC(=O)[C@H](CO)NC(=O)[C@@H]3CCCN3C2=O)C(=O)N[C@@H](CO)C(=O)N[C@@H]([C@@H](C)CC)C(=O)N[C@@H](C(C)C)C(=O)N[C@@H](CC(=O)O)C(=O)N[C@@H](CCCCN)C(=O)N[C@@H](CCC(N)=O)C(=O)N1)C(=O)N[C@@H](CCCCN)C(=O)N[C@@H](CCCCN)C(=O)N[C@@H](CCC(=O)O)C(=O)O [RhTx] (H-LNNPCNGVTCPSGYRCSIVDKQCIKKE-OH; disulfide 5-16, 10-23; N-terminus and C-terminus assumed)",RP-HPLC chromatograph before versus after treatment with POPC,"[1]; 0.1 mg RhTx, POPC SUVs 10 mg/ml, 10 mM HEPES, 50 mM KCl, pH 7.0, 40 min room temperature, supernatant RP-HPLC",No difference
same,RP-HPLC chromatograph before versus after treatment with POPE/POPG,"[1]; 0.1 mg RhTx, POPE/POPG 3:1 SUVs 10 mg/ml, 150 mM KCl, 40 min room temperature, supernatant RP-HPLC",No difference
same,incorporation into the lipid membrane (initial partition experiments),"[1]; SUVs 10 mg/ml, 40 min at room temperature, ultracentrifugation 304,000g 150 min, supernatant by RP-HPLC",does not incorporate into the lipid membrane
same,effect on voltage-gated Ca channels,[2],no detectable effect; also recorded: no discernable response
same,response of TRPV2,mTRPV2,no detectable effect; also recorded: no discernable response
same,core (colonic) temperature in knockout mice,Trpv1−/− mice,absent

# From paper PMC4589873, “A pain-inducing centipede toxin targets the heat activation machinery of nociceptor TRPV1” (Nature Communications, 2015)
